Values belong to the molecule of their own block, whether it stands above or below them. Where no end group is shown, it is not given here.
What was measured:
[1] = tested on: soleus muscle; assay: cAMP content of isolated soleus muscle from normal fed rats; type: cell-based, rat; details: for cAMP content in soleus muscles: 1 μM isoproterenol
Description: (§1) Soleus muscle preparation. All experiments were performed according to protocols approved by the Institutional Animal Ethics Committee. 5-6 week-old male Wistar rats (160 g) were kept on a 12:12-h light/dark cycle, and fed and watered ad libitum. Animals were anaesthetised with 50 mg/kg Nembutal (pentobarbitone sodium), then sacrificed by cervical dislocation. Soleus muscles were dissected under oxygenated KHB (118 mM NaCl, 4.75 mM KCl, 1.2 mM MgSO4, 24.8 mM NaHCO3, 1.2 mM KH2PO4, 2.54 mM CaCl2, 10 mM glucose, pH 7.4) and teased into halves, then incubated as described below.
(§2) For the measurement of cAMP in muscle, isolated soleus strips were incubated with stated concentrations of peptides, then lyophilized and deproteinized. Each strip was placed in 400 μl of 0.5 M HClO4 with 5 mM EDTA (phosphodiesterase inhibitor) and sonicated three times in 20 s bursts. Tubes were heated for 3-5 min in boiling water to coagulate protein, then centrifuged (12,000 g, 4° C., 2 min). Supernatant (300 μl) was taken and the pH adjusted to 7.0 with 75 μl of 2 M NH4OH. The samples were refrigerated (4° C., 2 h) to precipitate proteins, then centrifuged under the same conditions as above and 50 μl taken for cAMP measurement.

[2] = tested on: soleus muscle; assay: Masoprocol effect on CGRP1-evoked NEFA and triglyceride contents in soleus muscle from high fat-fed rats; type: cell-based, rat; details: 50 μM masoprocol with 100 nM or 1 pM CGRP1
Excerpt: Masoprocol, (nordihydroguaiaretic acid), is a lipoxygenase inhibitor, that has been identified as the active component of Creosote bush extracts. Oral administration of this compound lowers serum NEFA and triglyceride concentrations in rats with fructose-induced hypertriglyceridemia (Gowri et al. 2000, Am. J. Physiol. 279: E593-E600), and decrease blood glucose and triglyceride concentrations in a fat-fed/streptozotocin rat model (Reed et al. 1999, Diabetologia 42: 102-106).

[3] = molecular target: T1, murine ramp 1/C1ins− receptor (Mus musculus, UniProt Q60755+Q9WTJ5); assay: Radioligand binding and displacement of [3H]amylin in L6 myoblasts co-transfected with murine ramp 1 and C1ins−; details: displacement of [3H]amylin, FIG. 9A
T1 construct: expressed in transfected cells; host or cells: L6 myoblasts (ATCC), transient co-transfection of pcDNA3.1 plasmids
T1 sequence (Q60755 42-496 isoform Q60755-2 limits assumed): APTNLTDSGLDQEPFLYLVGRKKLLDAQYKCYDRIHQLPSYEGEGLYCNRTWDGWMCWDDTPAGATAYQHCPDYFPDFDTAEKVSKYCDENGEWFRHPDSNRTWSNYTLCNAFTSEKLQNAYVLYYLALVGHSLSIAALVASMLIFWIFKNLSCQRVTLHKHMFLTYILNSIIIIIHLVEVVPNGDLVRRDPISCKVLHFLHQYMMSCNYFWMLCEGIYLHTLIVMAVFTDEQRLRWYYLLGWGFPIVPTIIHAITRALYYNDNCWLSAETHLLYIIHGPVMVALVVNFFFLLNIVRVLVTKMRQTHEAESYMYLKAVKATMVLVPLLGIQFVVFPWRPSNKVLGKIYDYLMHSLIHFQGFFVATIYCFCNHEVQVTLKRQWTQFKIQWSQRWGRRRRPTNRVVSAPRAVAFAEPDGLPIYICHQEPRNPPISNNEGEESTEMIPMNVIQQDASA
T1 sequence (Q9WTJ5 27-148 partner): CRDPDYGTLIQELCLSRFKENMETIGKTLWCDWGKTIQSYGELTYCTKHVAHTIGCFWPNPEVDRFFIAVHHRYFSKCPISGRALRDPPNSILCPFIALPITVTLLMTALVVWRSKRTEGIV
Description: Transfection of L6 myoblasts and cos-7 cells, and analysis of radioligand binding. L6 myoblasts and cos-7 cells were obtained from ATCC. Both cell lines were cultered in Dulbecco's modified Eagle's medium (DMEM; Gibco/BRL, high glucose) supplemented with 10% fetal calf serum (Gibco/BRL, Gaithersburg, Md.), L-glutamine (2 mM), penicillin (100 U/ml; Sigma), streptomycin (100 mg/ml; Sigma), saline (0.85%), under 5% CO2/95% air at 37° C. The day before transfection, cells were trypsinised and seeded into six-well plates at a density of 2.9×10^5 cells/well in the same medium. For transfection, cells were incubated with a mixture comprising 1 μg each of Qiagen-purified (Qiagen, Valencia, Calif.) plasmids containing C1ins− with either ramp 1 or ramp 3, and Fugene reagent (6 μl; Boehringer Mannheim) in Opti-Mem I medium (Gibco/BRL). The complex was added with serum to cells, which were incubated for a further 48 h.
For binding experiments, radioligand (either alone or together with stated final concentrations of non-radiolabeled ligands) was dissolved in DMEM containing 0.1% BSA (binding buffer) for 1 h before binding experiments were performed. […] Cells were washed twice with this buffer, then incubated with 1 ml of the same plus radioligand for 4 h at room temperature (21° C.).

[4] = tested on: soleus muscle; assay: Lipid metabolites (free fatty acid, glycerol, triglyceride; enzymatic analysis) in isolated soleus muscle from normally fed rats; type: cell-based, rat; details: 1 h; for free fatty acid content in conjunction with 100 nM CGRP: 10 μM antagonist or maximally stimulating insulin (23.7 nM) + 100 nM CGRP, CGRP alone 334±52; for free fatty acid content in conjunction with 100 nM amylin: 10 μM antagonist or maximally stimulating insulin (23.7 nM) + 100 nM amylin, amylin alone 216±26
[5] = tested on: soleus muscle; assay: cAMP content of isolated soleus muscle from high fat-fed rats; type: cell-based, rat
Description: as §1, §2

[6] = tested on: Wistar rats; assay: Serum hormones and blood metabolites following acute CGRP infusion in anaesthetised normal-fed rats; type: in vivo, rat; details: end vs commencement of infusion
Description: (§3) Surgery. Experiments were performed on male Wistar rats. Animals were randomly assigned to experimental groups as outlined below. Induction and maintenance of surgical anesthesia was by 3-5% halothane and 2L oxygen. An initial blood sample was taken from a tail artery for measurement of baseline levels of blood glucose and lactate, electrolyte, acid base and oxygen status and serum levels of free fatty acids, triglyceride and cholesterol. Immediately following this, the trachea was cannulated and the animal ventilated at 60-70 breaths.min-1 with air supplemented with O2. The respiratory rate and end-tidal pressure (10-15 cmH2O) were adjusted to maintain end-tidal CO2 at 35-40 mmHg. Body temperature was maintained at 37° C. throughout surgery and the experiment by a heating pad. The carotid artery and jugular vein were cannulated with a solid-state blood pressure transducer and a saline filled PE 50 catheter respectively. For the antagonist infusion studies, surgery was similar to above with the alteration being that both the carotid artery and jugular vein were cannulated with saline filled PE 50 catheters. Fluids (saline or hormone dissolved in saline) were delivered to the jugular vein with a Y-connector to join the two lines. The carotid artery line was connected to a blood pressure transducer. Blood samples were taken from this line at time zero (baseline reading), 30 minutes and every 20 minutes until the end of the experiment at 90 minutes.
Infusion. […] Blood glucose measurements were taken from tail capillaries at 5-minute intervals throughout the duration of the experiment. At the end of the infusion a terminal blood sample was taken by cardiac puncture and analysed as per the basal sample and also for various metabolites and hormones. Serum and plasma samples were stored at −80° C. until future analysis. Animals were killed by cervical dislocation and harvested tissues (brain, liver, kidney, soleus muscle, extensor digitorum longus muscle, left ventricle, retroperitoneal and epididymal fat pads) snap frozen in liquid N2 and stored at −80° C. until future analysis.

[7] = tested on: Wistar rats; assay: Tissue free fatty acid and triglyceride content following infusion in normal-fed rats; type: in vivo, rat
Description: as §3
Infusion. […] Blood glucose measurements were taken from tail capillaries at 5-minute intervals throughout the duration of the experiment. At the end of the infusion a terminal blood sample was taken by cardiac puncture and analysed as per the basal sample and also for various metabolites and hormones. Serum and plasma samples were stored at −80° C. until future analysis. Animals were killed by cervical dislocation and harvested tissues (brain, liver, kidney, soleus muscle, extensor digitorum longus muscle, left ventricle, retroperitoneal and epididymal fat pads) snap frozen in liquid N2 and stored at −80° C. until future analysis. For the antagonist studies, the protocols was the same as above with the following changes: Infusion was a combination of antagonist, CGRP or saline.

[8] = tested on: soleus muscle; assay: Glucose transport (2-deoxy-D-glucose uptake) in incubated soleus muscle strips; type: cell-based, rat
Description: as §1
Determination of rates of glucose transport in incubated soleus muscle strips. 4-5 muscle strips were added to each flask, which contained 10 ml DMEM. They were pre-incubated with hormones as indicated for 30 min at 30° C. in a shaking water bath, after which 5 μl of 2[^3H]DOG (0.5 μCi/ml) and 5 μl D[^14C(U)]sorbitol (0.05 μCi/ml) were added, then incubated for another 30 min; RIA grade BSA was added to 0.9% (w/v) to prevent non-specific binding of insulin to flasks. Following incubation, muscle strips were transferred to ice-cold KHB for 5-10 min to remove excess [^3H]DOG and [^14C]sorbitol. They were then blotted, frozen, tendons excised, then lyophilized for a further 48 h. Muscles were then weighed, transferred to scintillation vials and digested with 0.5 ml 1 M NaOH at 60° C. for 1 h. Scintillation fluid (4 ml) was added to each vial, and samples counted in a Beckman liquid scintillation spectrometer, preset to count ^14C and ^3H channels simultaneously. The amount of each isotope present in the samples was determined and used to calculate the extracellular space and the intracellular concentration of [^3H]DOG. The accumulation of intracellular [^3H]DOG, a measure of muscle glucose uptake, was calculated by subtracting the concentration of [^3H]DOG in the extracellular space from the corresponding total muscle [^3H]DOG]; extracellular [^3H]DOG was quantified by measuring the muscle concentration of [^14C]sorbitol.
Data analysis. One way ANOVA, Dunnett's Multiple Comparisons Test, and unpaired Student's t-tests were used to calculate the statistical significance of differences, as appropriate. Dose-response curves were fitted to a sigmoidal dose-response algorithm, as follows: Y=minimum+(maximum−minimum)/([…] log ^(EC50^−X), for 2-DOG-uptake; and by a four parameter logistic model, Y=minimum+(maximum−minimum)/(1+10 log ^(EC50^−X)Hill-Coefficient) for total glycogen and [^14C]glucose incorporation. Calculations were performed using Prism v2.0 (GraphPad Software, San Diego, Calif.) to derive values for half-maximal effective concentration (EC50). Displacement curves derived for competition of bound radioligand with cold ligand in transfected cells were calculated according to a one site competition fit using Prism v2.0.

[9] = molecular target: metabolic amylin receptor

Molecule: CNCC(O)c1ccc(O)c(O)c1 (stereo not shown) [adrenaline]
cAMP content, agonist alone ([1]; normal fed, 100 nM CGRP or adrenaline, control 3.9±0.2): 9.6 ± 0.7 pmol/mg

Molecule: CC(C)NCC(O)c1ccc(O)c(O)c1 (stereo not shown) [isoproterenol]
cAMP content in soleus muscles ([1]; experiment of FIG. 13A): 3.5 ± 0.2 pmol/mg | cAMP content in soleus muscles ([1]; experiment of FIG. 13B): 3.8 ± 0.2 pmol/mg

Molecule: CC(Cc1ccc(O)c(O)c1)C(C)Cc1ccc(O)c(O)c1 (stereo not shown) [masoprocol, nordihydroguaiaretic acid]
effect on CGRP1-evoked NEFA elevation [2]: completely reversed NEFA elevation | effect on CGRP1-evoked decrements in triglyceride content [2]: completely reversed decrements in soleus triglyceride content

Molecule: Human adrenomedullin
competition with amylin for binding to co-transfected cells [3]: competed only very weakly

Molecule: human CGRP1-(8-37) [CGRP-(8-37)]
free fatty acid concentration in conjunction with 1 pM CGRP ([4]; 100 pM antagonist + 1 pM CGRP, CGRP alone 166±18): 68±8 nmol/g | free fatty acid content in conjunction with 100 nM CGRP [4]: 90 ± 7 nmol/g | free fatty acid content in conjunction with 100 nM amylin [4]: 65 ± 8 nmol/g | cAMP content with 100 nM CGRP plus antagonist ([1]; normal fed, 10-fold molar excess of antagonist, CGRP alone 6.9±0.8): 4.8 ± 0.2 pmol/mg | cAMP content with 100 nM CGRP1 plus antagonist ([5]; 10-fold molar excess of antagonist): 5.4 ± 0.4 pmol/mg | cAMP content with 1 pM CGRP plus antagonist ([5]; 10-molar excess of antagonist, CGRP alone 8.6±0.4): 4.7±0.5 pmol/mg | Change in [serum] Triglyceride ([6]; CGRP 60 min, CGRP-(8-37) 90 min, control 0.2): 0.9 mmol/L | Change in [serum] FFA ([6]; control −0.1): -0.3 mmol/L | Change in Lactate ([6]; heparinised whole blood, control 0.3): 0.02 mmol/L | FFA content, Heart ([7]; CGRP 100 pmol/kg/min 1 h, CGRP-(8-37) 10 nmol/kg/min 90 minutes, control 0.8 ± 0.2): 0.9 ± 0.2 µmol/g | FFA content, Liver ([7]; same infusions, control 0.1 ± 0.01): 0.06 ± 0.04 µmol/g | FFA content, Soleus Muscle ([7]; same infusions, control 0.2 ± 0.02): 0.1 ± 0.02 µmol/g | FFA content, Kidney ([7]; same infusions, control 0.8 ± 0.1): 0.8 ± 0.1 µmol/g | FFA content, Epi Adipose ([7]; same infusions, control 2.1 ± 0.5): 2.2 ± 0.6 µmol/g | triglyceride content, Kidney ([7]; same infusions, control 2.8 ± 0.5): 2.5 ± 0.4 µmol/g | triglyceride content, Heart ([7]; same infusions, control 2.9 ± 0.4): 3.1 ± 0.4 µmol/g | triglyceride content, Soleus Muscle ([7]; same infusions, control 3.7 ± 0.4): 4.3 ± 0.4 µmol/g | triglyceride content, Liver ([7]; same infusions, control 4.3 ± 0.3): 5.8 ± 0.4 µmol/g | triglyceride content, Epi Adipose ([7]; same infusions, control 5.1 ± 1.2): 4.9 ± 1 µmol/g

Molecule: insulin: Soluble human insulin (Actrapid 100U, Novo Nordisk)
free fatty acid content in conjunction with 100 nM CGRP [4]: 107 ± 17 nmol/g | free fatty acid content in conjunction with 100 nM amylin [4]: 100 ± 11 nmol/g | intramuscular free fatty acid content ([4]; soleus, normally fed rats, 100 nM amylin or CGRP-1, 4.4 μM norepinephrine, 23.7 nM insulin, control 78±21): 67 ± 9 nmol/g | 2-DOG-uptake ([8]; hormone alone (amylin 10 nM; insulin 23.7 nM), basal 8.8 ± 0.9): 28.4 ± 6.4 nmol/g dry-wt muscle/min | stimulation of glucose uptake ([8]; insulin 23.7 nM vs basal): 3.2 fold

EC50, total glycogen content, with insulin (23.7 nM) [9]: 4.3 nM
Molecule: rat CGRP-1 (ligand; unit assumed)

EC50, total glycogen content, with insulin (23.7 nM) [9]: 8.1 nM
Molecule: rat amylin (from UniProt P12969) (ligand; unit assumed)

Molecule: rat calcitonin (CGNLSTCMLGTYTQDLNKFHTFPQTSIGVGAP; ends and bridges not checked; cysteine pairing not given here) [calcitonin family peptide from Bachem]
competition with amylin for binding to co-transfected cells [3]: competed only very weakly

EC50, total glycogen content, with insulin (23.7 nM) [9]: 0.6 nM
Molecule: salmon calcitonin (from UniProt P01263) (ligand; unit assumed)

EC50, ^14C-glucose incorporation into glycogen, with insulin (23.7 nM) [9]: 0.9 nM | EC50, ^14C-glucose incorporation into glycogen, without insulin [9]: 0.1 nM | EC50, total glycogen content, without insulin [9]: 1.7 nM
Molecule: CSNLSTCVLGKLSQELHKLQTYPRTNTGSGTP (ligand, ends and bridges not checked; cysteine pairing not given here) [salmon calcitonin]

From patent US20040038861A1, “Methods and compositions for normalizing lipid levels in mammalian tissues” (priority 2001, published 2004)
